The test deals with D54 ERlucT glycosylation luciferase reporter, luminescence, 24 h. Nature of the test: N-linked glycosylation inhibitors, luciferase reporter, dose response, D54 ERlucT cells, luminescence, cherry-picks (AID 624491).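 Also: signal gain reflects blocked N-linked glycosylation of a luciferase reporter; actives raise luciferase signal so AC26 marks activators of the reporter.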 A general note: A reporter such as luciferase makes a cellular process visible.

Calls of active or inactive are those of the source.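 The calls were made as follows: active = fitted curve crossing a set activation limit at or below the highest valid dose tested; inconclusive = flat fit at 30 to 70% activation, or poor fit; inactive = the rest, including signal decreases.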

On to `CC(CCc1ccco1)NC(=O)CCc1nnc2ccc(NCc3ccc(Cl)cc3)nn12` (centres undefined), for which the AC26 was 1260 nM. With `COC(=O)c1cn(C(=O)/C=C/c2ccc(OC)c(OC)c2)c2ccccc12` the figure was 1640 nM; with `CCn1c2ccccc2c2cc(NC(=O)CNCc3ccccc3OC)ccc21`, 1360 nM. For the compound `Cc1cc(C)c(S(=O)(=O)N(C)CC(=O)N2CCCC2)c(C)c1`, the AC26 was 2910 nM. Regarding `CC(=O)c1ccc(Nc2nc(-c3sc(C)nc3C)cs2)cc1`, the AC26 is 40.5 nM.

`COc1ccc(NC(=O)C(=O)c2cn(CC(=O)N3CCCC3)c3ccccc23)cc1`: the AC26 was 105 nM. With `CC(=O)Nc1ccc(C(=O)N/N=C/c2ccccc2OCc2ccccc2)cc1`, the AC26 is 1490 nM. As for `Cn1c(=O)n(C)c2cc(C(=O)Nc3ccc4c(c3)OCO4)ccc21`, the AC26 was 1740 nM. Take `COc1cccc(N2CCN(C(=O)c3ccc(CS(=O)c4ccc(Cl)cc4)o3)CC2)c1` (centres undefined): the AC26 is 234 nM. Regarding `OCCNc1c2ccccc2nc2ccccc12`, the AC26 is 907 nM. The result for `O=C(/C=C/c1cccc(Br)c1)c1ccc2c(c1)OCO2` reads 7470 nM; that for `CCOC(=O)C1=CC[C@@H](c2ccncc2)N(S(=O)(=O)c2ccc(C)cc2)C1`, 12100 nM. As for `CCC(=NCCc1c(C)[nH]c2ccc(OC(F)(F)F)cc12)C1=C(O)CC(c2ccccc2)CC1=O` (centres undefined), the AC26 is 817 nM.

Take `COc1cc([C@@H]2c3cc4c(cc3[C@@H](OC)[C@H]3COC(=O)[C@H]23)OCO4)cc(OC)c1O`: the AC26 is 501 nM. With `O=c1[nH]c(=O)n([C@H]2C[C@H](O)[C@@H](CO)O2)cc1Br`, the AC26 was 1690 nM. With `CCCCCCC(=O)N(O)C1CC(=O)N(Cc2ccccc2)C1=O` (centres undefined) the figure was 6200 nM; with `COc1ccc(NC(=O)C2Cc3c(-c4cccc(C(C)=O)c4)ccnc3O2)cn1` (centres undefined), 203 nM; with `CN1C(=O)c2cccc3c(S(=O)(=O)Nc4ccccn4)ccc1c23`, 5030 nM.

Turning to `COc1ccc(NCC(=O)n2c(C)c(C)c3ccccc32)cc1`, the AC26 was 3640 nM. As for `COc1ccc2nc3n(c(=O)c2c1)-c1cc2ccccc2cc1C(=O)NC3Cc1ccccc1` (centres undefined), the AC26 was > 19500 nM (inactive).

As to `O=c1[nH]c(=O)c2nc3c4ccccc4c4ccccc4c3nc2[nH]1`, the AC26 is 392 nM.

Consider `COc1ccc(CNC(=O)c2cccc3c(-c4cccc(C(N)=O)c4)coc23)cc1OC`, for which the AC26 was 663 nM. For the compound `CCOc1cc(-c2c(C#N)c(N)nc3c2CCc2ccccc2-3)ccc1O`, the AC26 is 9010 nM. For `C[C@H]1CN([C@@H](C)CO)C(=O)Cc2cc(NC(=O)CCC(F)(F)F)ccc2O[C@H]1CN(C)S(=O)(=O)c1ccc(F)cc1`, the AC26 is 5300 nM. For `CCCCCC(O)C=CC1C(O)CC(O)C1CC=CCCCC(=O)O` (centres undefined), the AC26 is 7.83 nM. With `O=C1CC(c2ccccc2F)c2cc3c(cc2N1)CCC3` (centres undefined) the figure was 938 nM; with `O=C1Nc2ccccc2/C1=C/c1nc2ccccc2c(=O)n1-c1ccc(O)cc1`, 11500 nM.

Consider `Cc1ccc(-c2nc3ncccc3o2)cc1NC(=O)c1ccc([N+](=O)[O-])o1`, for which the AC26 was 4010 nM. For the compound `CC(O)CN=c1cc(-c2ccccc2)oc2ccc(Cl)cc12` (centres undefined), the AC26 was 1150 nM. Turning to `Cc1ccc(C)c(NC(=O)Cn2nnc(C(=O)NCc3ccco3)c2N)c1`, the AC26 is 9800 nM. Regarding `CC(=O)C1=C(O)C(=O)N(c2ccc(Br)cn2)C1c1ccc(Br)cc1` (centres undefined), the AC26 is 491 nM. As for `NC(=O)CC(NC(=O)c1ccc(Br)cc1)c1ccc(NC2CCCCC2)c([N+](=O)[O-])c1` (centres undefined), the AC26 is 6020 nM. For the compound `CSc1cccc(NC(=O)CCCOc2cc(=O)n(C)c3ccccc23)c1`, the AC26 is 4940 nM. Consider `CSCCOC(=O)c1[nH]c2c(c1C)C(=O)CC(c1ccco1)C2` (centres undefined), for which the AC26 was 526 nM. Regarding `CCn1c2ccccc2c2cc(NC(=O)COC(=O)c3cc(S(N)(=O)=O)c(Cl)cc3Cl)ccc21`, the AC26 was 3710 nM. Turning to `Cc1cnc(NC(=O)c2cc(S(=O)(=O)N(C)C)ccc2N2CCCC2)s1`, the AC26 was 10.7 nM.

Turning to `COc1ccc(C2(CNC(=O)c3cc(OC)c(OC)c(OC)c3)CCCC2)cc1OC`, the AC26 is 3140 nM. On to `CC(C)c1c(C(=O)Nc2ccccc2)c(-c2ccccc2)c(-c2ccc(F)cc2)n1CC[C@@H](O)C[C@@H](O)CC(=O)O`, for which the AC26 was 68.2 nM. In the case of `Cc1noc(C)c1-c1ccc(C(=O)NCc2cccnc2)c2occc12`, the AC26 was 4700 nM. On to `CC(=O)c1cccc(-c2ccnc3c2CC(C(=O)NCc2ccco2)O3)c1` (centres undefined), for which the AC26 is 967 nM. For `CCOC(=O)c1cnc2c(ccc3ccccc32)c1NCCCN(C)C`, the AC26 was 2050 nM. The result for `CC(=O)Nc1cccc(-c2ccnc3c2CC(C)(C(=O)Nc2cccc(C(C)=O)c2)O3)c1` (centres undefined) reads 9480 nM; that for `CC1(C(=O)NCc2ccco2)Cc2c(-c3cccc(C(N)=O)c3)ccnc2O1` (centres undefined), 1450 nM; that for `O=C(N/N=C/c1ccccc1)c1sccc1OCc1ccc(F)cc1`, 2600 nM. With `C=C(C)Cc1c(C)c(C#N)c2nc3ccccc3n2c1NCCCN(C)C` the figure was 1080 nM; with `C[C@H](O)[C@@H]1CN2CCc3c([nH]c4ccccc34)[C@@H]2C[C@@H]1N(C)C(=O)c1ccco1`, 408 nM; with `CC(=O)Nc1ccc(-c2ccnc3c2CC(C(=O)NCc2cccc(Cl)c2)O3)cc1` (centres undefined), 540 nM. Turning to `COc1cc(NC(=O)CN2c3cccc4cccc(c34)S2(=O)=O)cc(OC)c1OC`, the AC26 was 1770 nM. As for `Cn1c(=O)n(C)c2cc(S(=O)(=O)N3CCCc4ccccc43)ccc21`, the AC26 is 3550 nM. `O=C1NC(=O)N(c2ccccc2)C(=O)/C1=C\C=C\c1ccccc1`: the AC26 is 679 nM. The result for `CC(C)(C)c1ccc(C(=O)O/N=C(\N)Cc2cccs2)cc1` reads 11800 nM; that for `Cc1cccc2c(C(=O)N3CCN(c4ccccc4)CC3)cc(-c3ccncc3)nc12`, 198 nM.

Regarding `COc1cc(/C=N/NC(=O)c2cc(-c3c(C)nn(-c4ccccc4)c3C)n[nH]2)ccc1O`, the AC26 was 1390 nM.

For `COc1cccc(C(=O)Nc2sc3c(c2C#N)CCN(C(C)=O)C3)c1`, the AC26 is 9.19 nM. `COC(=O)c1cn(C(=O)c2ccc(OC)cc2)c2ccccc12`: the AC26 was 730 nM.

As for `NC(=O)c1cccc(Nc2nc(C(N)CCc3ccccc3)cs2)n1` (centres undefined), the AC26 was 8640 nM. Turning to `CCC(C)C(=O)OC1CCC=C2C=CC(C)C(CCC3CC(O)CC(=O)O3)C21` (centres undefined), the AC26 is 34.8 nM. On to `CC(=O)Nc1cccc(-c2ccnc3c2CC(C)(C(=O)NCCc2ccccc2)O3)c1` (centres undefined), for which the AC26 was 1370 nM.

Consider `Cn1c(=O)n(C)c2cc(NS(=O)(=O)c3ccc4c(c3)CCCC4)ccc21`, for which the AC26 is 2670 nM.

On to `COc1cc2c(cc1OC)C(c1cc(Br)ccc1F)N(C(=O)CCl)CC2` (centres undefined), for which the AC26 was 2280 nM. With `O=C(NCCN1C(=O)S/C(=C\c2ccc(Cl)cc2Cl)C1=O)C1=COCCO1` the figure was > 19500 nM (inactive); with `Cn1c(=O)c([N+](=O)[O-])c(-n2ccnc2)c2ccccc21`, 4170 nM. `CCN(CC)S(=O)(=O)c1cccc(NC(=O)CN2C(=O)NC3(CCC(C)CC3)C2=O)c1` (centres undefined): the AC26 is 876 nM.

Turning to `Cc1ccc(C(=O)N/C(=C/c2cccs2)C(=O)NCCc2c[nH]c3ccccc23)cc1`, the AC26 is 1080 nM. As to `O=C(c1cccc(Oc2ccccc2)c1)N1CCN(c2ccccn2)CC1`, the AC26 is 2190 nM. As to `COc1ccc2oc(-c3ccccc3[N+](=O)[O-])cc(=O)c2c1`, the AC26 was 568 nM. In the case of `CCOC(=O)[C@H]1[C@H]2COc3ccc(OC)cc3[C@@H]2N2C(=O)c3cc(OC)c(OC)cc3NC(=O)[C@@]12C`, the AC26 was 300 nM. Consider `COc1cc(OC)c(N2CC(C(=O)Nc3cc(Cl)ccc3N3CCOCC3)CC2=O)cc1Cl` (centres undefined), for which the AC26 was 3310 nM. For `Cc1cccc(C(=O)Nc2cc(S(=O)(=O)N3CCOCC3)ccc2N2CCCC2)c1`, the AC26 was 173 nM. Take `Cn1c(=O)n(C)c2cc(NS(=O)(=O)c3ccccc3)ccc21`: the AC26 is 3430 nM.

Regarding `COc1cc(N)ccc1Nc1c2ccccc2nc2ccccc12`, the AC26 was 70 nM. The result for `Cc1c(C(=O)N/N=C/c2cccnc2)sc(N)c1C#N` reads 2000 nM; that for `COc1cc(-c2noc(C)c2/C=C/c2ccc(OC(C)=O)cc2)cc(OC)c1OC`, 494 nM; that for `COc1cc(C(=O)OCC(C)=O)ccc1OCc1c(C)noc1C`, 3270 nM.

Consider `COc1cc2nc(NC(=O)c3ccc(F)cc3Cl)sc(=O)c2cc1OC`, for which the AC26 was 1900 nM.

For the compound `CCN(CC)CCCNC(=O)CSc1c2c(nc3cc(Cl)ccc13)CCCC2`, the AC26 was 11400 nM.

For `CN(C)CCCN1C(=O)c2cccc3c(Br)ccc(c23)C1=O`, the AC26 was 871 nM. In the case of `O=C(/C=C/Sc1ccc(C(F)(F)F)cn1)c1ccccc1`, the AC26 is 3910 nM.

In the case of `O=C(/C=C/c1ccco1)Nc1nnc(-c2ccco2)s1`, the AC26 is 310 nM. With `O=C(c1ccccc1-c1ccccc1)N1CCN(c2ccccn2)CC1`, the AC26 was 2340 nM. `Cc1ccc2c(CC(=O)NCc3ccco3)coc2c1C`: the AC26 was 7380 nM. The result for `COc1ccc(Nc2nc3cc(-c4sccc4C)sc3c(=O)n2C)cc1OC` reads 477 nM.

Take `C[C@@H](NC(=O)c1ncn2c1c(=O)[nH]c1ccc(Br)cc12)c1ccccc1`: the AC26 was 2060 nM. Consider `COc1ccc(NC(=O)C2Cc3c(-c4cccc(NC(C)=O)c4)ccnc3O2)cc1OC` (centres undefined), for which the AC26 is 2270 nM.

Turning to `Cc1nnc2c(NC3CCCC3)nc3ccccc3n12`, the AC26 is 5060 nM. The result for `Cc1cc(C)c2c(N)c3ccccc3nc2n1` reads 762 nM; that for `COCCN(C(=O)CCl)C(C(=O)NC1CCCCC1)c1ccccc1C` (centres undefined), 3340 nM; that for `CCN1C(=O)Nc2cccc3cccc1c23`, 3360 nM. For `COC(=O)c1ccc(C(=O)NC2CCCc3c2cnn3-c2ccccc2F)nc1` (centres undefined), the AC26 was 4140 nM.

With `COc1cccc(N2CCN(C(=O)c3ccc(CS(=O)c4ccc(C)cc4)o3)CC2)c1` (centres undefined), the AC26 was 110 nM. Take `CCOC(=O)Cc1csc(/N=C/c2c(O)n(-c3ccc(C)c(C)c3)c(=O)c3ccccc23)n1`: the AC26 is 2580 nM.

Turning to `O=C(/C=C/c1ccc([N+](=O)[O-])cc1)/C=C/c1ccco1`, the AC26 was 1140 nM. For the compound `CC(C)Oc1ccc(F)cc1-c1cc(C(=O)Nc2ccc(C(C)(C)C)cc2)[nH]n1`, the AC26 is 2040 nM.

Turning to `COc1ccccc1-c1cc(C(=O)Nc2cc(C)nn2-c2ccccc2)no1`, the AC26 is 760 nM.

The values above are taken from PubChem BioAssay AID624491 (Broad Institute, 2012).
